In paper PMC10337138 (Acta Neuropathologica Communications, 2023):

Legend:
Conditions in all cases: 1 mM ATP; inhibitor
SIK1 = SIK1 (Homo sapiens, UniProt P57059)
Description: (§1) Kinase selectivity panel Kinome profiling was conducted by AssayQuant Technologies (Marlboro, MA) using Sox chromophore technology and Sox-based peptide substrates developed for human kinases in a 384-well format. Compounds were tested at 1 µM in the presence of 1 mM ATP.

EPHA2 = EPHA2 (Homo sapiens, UniProt P29317)
EPHA2, sequence (P29317 whole entry): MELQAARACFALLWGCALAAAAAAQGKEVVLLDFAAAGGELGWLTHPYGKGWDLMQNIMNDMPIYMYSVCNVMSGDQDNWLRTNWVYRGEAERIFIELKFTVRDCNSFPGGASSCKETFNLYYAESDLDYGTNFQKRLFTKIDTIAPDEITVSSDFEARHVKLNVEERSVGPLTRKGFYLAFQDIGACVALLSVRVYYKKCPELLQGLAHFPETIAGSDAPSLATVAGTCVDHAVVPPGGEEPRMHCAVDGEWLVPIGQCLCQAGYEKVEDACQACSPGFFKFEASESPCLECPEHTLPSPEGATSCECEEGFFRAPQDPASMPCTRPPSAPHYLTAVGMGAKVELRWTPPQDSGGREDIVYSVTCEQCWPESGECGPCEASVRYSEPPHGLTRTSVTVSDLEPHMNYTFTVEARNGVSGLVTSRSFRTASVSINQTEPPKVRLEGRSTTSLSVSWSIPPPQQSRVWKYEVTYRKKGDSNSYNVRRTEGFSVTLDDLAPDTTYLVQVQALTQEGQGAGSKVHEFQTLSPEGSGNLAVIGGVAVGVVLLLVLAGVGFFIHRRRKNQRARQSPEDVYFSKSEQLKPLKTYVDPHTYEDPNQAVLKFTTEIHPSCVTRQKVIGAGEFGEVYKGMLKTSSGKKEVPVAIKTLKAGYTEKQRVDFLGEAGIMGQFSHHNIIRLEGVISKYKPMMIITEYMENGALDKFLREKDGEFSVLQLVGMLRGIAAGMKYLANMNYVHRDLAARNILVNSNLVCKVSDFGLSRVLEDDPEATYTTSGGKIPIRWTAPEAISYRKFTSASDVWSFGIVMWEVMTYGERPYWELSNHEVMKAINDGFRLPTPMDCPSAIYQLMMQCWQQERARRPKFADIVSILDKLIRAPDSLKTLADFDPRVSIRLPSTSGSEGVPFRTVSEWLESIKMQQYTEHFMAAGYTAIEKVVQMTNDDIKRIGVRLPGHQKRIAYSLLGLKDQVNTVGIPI
Description: as §1

NTRK1 = NTRK1 (Homo sapiens, UniProt P04629)
Description: as §1

PRKCI/PKCI = PRKCI/PKCI (Homo sapiens, UniProt P41743)
Description: as §1

LIMK2 = LIMK2 (Homo sapiens, UniProt P53671)
Description: as §1

FYNB = biological target: T1, FYNB (Homo sapiens, UniProt P06241)
T1 construct: gene FYN
Description: as §1

DRAK2 = biological target: T2, DRAK2 (Homo sapiens, UniProt O94768)
T2 construct: gene STK17B
Description: as §1

MAP3K10 = MAP3K10 (Homo sapiens, UniProt Q02779)
Description: as §1

FLT1 = FLT1 (Homo sapiens, UniProt P17948)
Description: as §1

DYRK4 = DYRK4 (Homo sapiens, UniProt Q9NR20)
DYRK4, sequence (Q9NR20 whole entry): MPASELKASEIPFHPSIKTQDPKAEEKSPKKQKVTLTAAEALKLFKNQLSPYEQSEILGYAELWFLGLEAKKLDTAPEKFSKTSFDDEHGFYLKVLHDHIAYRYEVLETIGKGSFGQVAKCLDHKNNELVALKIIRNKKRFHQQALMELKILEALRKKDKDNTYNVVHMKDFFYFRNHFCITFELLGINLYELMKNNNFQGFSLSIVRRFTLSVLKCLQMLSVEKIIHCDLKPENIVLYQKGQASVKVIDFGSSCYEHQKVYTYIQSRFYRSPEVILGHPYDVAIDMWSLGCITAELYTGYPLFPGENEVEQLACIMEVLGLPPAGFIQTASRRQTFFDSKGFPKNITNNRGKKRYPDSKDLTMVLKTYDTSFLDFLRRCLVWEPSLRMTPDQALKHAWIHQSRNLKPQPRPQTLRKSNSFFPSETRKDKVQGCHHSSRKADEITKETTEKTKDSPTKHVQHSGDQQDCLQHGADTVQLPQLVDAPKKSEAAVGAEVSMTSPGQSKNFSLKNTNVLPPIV
Description: as §1

NDR2 = biological target: T3, NDR2 (Homo sapiens, UniProt Q9Y2H1)
T3 construct: gene STK38L
Description: as §1

ROCK1 = ROCK1 (Homo sapiens, UniProt Q13464)
Description: as §1

RIPK2 = RIPK2 (Homo sapiens, UniProt O43353)
RIPK2, sequence (O43353 whole entry): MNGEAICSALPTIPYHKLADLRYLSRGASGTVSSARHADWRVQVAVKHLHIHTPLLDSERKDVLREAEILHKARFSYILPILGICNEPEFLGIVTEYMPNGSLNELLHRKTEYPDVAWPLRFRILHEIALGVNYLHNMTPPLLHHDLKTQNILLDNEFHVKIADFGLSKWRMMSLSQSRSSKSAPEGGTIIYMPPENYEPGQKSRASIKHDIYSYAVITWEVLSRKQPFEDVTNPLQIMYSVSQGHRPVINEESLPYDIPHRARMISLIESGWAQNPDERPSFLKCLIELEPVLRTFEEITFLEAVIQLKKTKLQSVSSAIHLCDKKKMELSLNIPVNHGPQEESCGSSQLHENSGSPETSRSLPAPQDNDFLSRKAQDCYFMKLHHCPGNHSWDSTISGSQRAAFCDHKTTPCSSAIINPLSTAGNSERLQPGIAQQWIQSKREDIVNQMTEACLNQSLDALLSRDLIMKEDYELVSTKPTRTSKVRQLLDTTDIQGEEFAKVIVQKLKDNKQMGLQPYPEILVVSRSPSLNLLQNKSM
Description: as §1

AKT1 = AKT1 (Homo sapiens, UniProt P31749)
Description: as §1

MARK3 = MARK3 (Homo sapiens, UniProt P27448)
Description: as §1

TNK1 = TNK1 (Homo sapiens, UniProt Q13470)
TNK1, sequence (Q13470 whole entry): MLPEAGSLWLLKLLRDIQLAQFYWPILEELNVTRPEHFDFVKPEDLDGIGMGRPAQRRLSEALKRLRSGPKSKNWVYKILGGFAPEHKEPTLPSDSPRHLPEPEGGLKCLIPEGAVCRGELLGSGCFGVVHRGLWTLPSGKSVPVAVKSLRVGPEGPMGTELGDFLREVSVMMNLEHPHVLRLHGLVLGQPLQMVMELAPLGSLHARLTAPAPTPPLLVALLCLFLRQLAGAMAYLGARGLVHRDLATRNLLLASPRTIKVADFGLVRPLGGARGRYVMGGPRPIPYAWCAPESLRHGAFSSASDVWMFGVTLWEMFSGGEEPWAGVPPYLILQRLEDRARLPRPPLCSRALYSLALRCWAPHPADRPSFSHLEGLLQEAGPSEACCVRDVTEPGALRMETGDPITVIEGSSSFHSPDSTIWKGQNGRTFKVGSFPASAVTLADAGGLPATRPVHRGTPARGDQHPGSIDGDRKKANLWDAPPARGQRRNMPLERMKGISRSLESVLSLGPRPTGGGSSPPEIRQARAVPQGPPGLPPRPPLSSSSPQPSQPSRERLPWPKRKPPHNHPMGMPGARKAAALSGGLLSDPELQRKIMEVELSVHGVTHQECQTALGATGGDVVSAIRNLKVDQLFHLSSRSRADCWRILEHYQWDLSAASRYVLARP
Description: as §1

PRKACB = PRKACB (Homo sapiens, UniProt P22694)
Description: as §1

PDHK4 = biological target: T4, PDHK4 (Homo sapiens, UniProt Q16654)
T4 construct: gene PDK4
Description: as §1

ERN1 = ERN1 (Homo sapiens, UniProt O75460)
Description: as §1

MASTL = MASTL (Homo sapiens, UniProt Q96GX5)
Description: as §1

MYO3B = MYO3B (Homo sapiens, UniProt Q8WXR4)
MYO3B, sequence (Q8WXR4 whole entry): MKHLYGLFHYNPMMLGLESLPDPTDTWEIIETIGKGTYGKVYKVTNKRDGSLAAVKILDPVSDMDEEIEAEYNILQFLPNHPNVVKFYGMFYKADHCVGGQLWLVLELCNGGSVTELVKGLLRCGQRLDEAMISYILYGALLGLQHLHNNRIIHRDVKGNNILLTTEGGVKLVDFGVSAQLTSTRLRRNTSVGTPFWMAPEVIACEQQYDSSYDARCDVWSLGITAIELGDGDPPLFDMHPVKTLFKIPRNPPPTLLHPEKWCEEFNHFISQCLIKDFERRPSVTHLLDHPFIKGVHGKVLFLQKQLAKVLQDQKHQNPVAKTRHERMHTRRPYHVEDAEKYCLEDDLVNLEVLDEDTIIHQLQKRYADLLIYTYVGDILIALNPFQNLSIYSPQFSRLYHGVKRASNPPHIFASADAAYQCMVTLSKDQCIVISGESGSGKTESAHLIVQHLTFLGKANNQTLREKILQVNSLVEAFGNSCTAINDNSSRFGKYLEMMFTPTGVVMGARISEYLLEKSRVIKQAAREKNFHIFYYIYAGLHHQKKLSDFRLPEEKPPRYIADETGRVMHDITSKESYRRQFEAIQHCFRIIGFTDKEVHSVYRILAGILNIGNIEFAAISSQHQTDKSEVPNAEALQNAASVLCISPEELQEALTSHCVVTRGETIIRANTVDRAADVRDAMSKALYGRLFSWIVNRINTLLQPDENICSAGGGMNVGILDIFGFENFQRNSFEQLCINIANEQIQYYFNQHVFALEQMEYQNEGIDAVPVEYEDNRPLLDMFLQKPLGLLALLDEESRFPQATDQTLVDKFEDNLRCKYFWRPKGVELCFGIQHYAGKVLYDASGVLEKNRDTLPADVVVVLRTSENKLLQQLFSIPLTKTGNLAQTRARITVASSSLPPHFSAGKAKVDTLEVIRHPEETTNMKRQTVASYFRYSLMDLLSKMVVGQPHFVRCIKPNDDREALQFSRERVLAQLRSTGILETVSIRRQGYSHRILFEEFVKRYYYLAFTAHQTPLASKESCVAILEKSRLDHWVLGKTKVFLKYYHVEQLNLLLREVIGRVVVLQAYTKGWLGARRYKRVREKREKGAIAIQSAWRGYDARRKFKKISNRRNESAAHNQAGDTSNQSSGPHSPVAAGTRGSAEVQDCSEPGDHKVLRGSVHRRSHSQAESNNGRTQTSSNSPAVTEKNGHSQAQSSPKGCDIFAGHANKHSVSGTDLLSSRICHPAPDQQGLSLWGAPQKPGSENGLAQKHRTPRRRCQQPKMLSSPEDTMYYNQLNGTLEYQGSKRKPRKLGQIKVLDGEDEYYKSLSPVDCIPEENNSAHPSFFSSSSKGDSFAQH
Description: as §1

FLT3 = FLT3 (Homo sapiens, UniProt P36888)
Description: as §1

SRPK2 = SRPK2 (Homo sapiens, UniProt P78362)
Description: as §1

MELK = MELK (Homo sapiens, UniProt Q14680)
Description: as §1

TEK/TIE2 = TEK/TIE2 (Homo sapiens, UniProt Q02763)
Description: as §1

EPHB1 = EPHB1 (Homo sapiens, UniProt P54762)
Description: as §1

PRKG1 = PRKG1 (Homo sapiens, UniProt Q13976)
Description: as §1

EIF2AK1/HRI = EIF2AK1/HRI (Homo sapiens, UniProt Q9BQI3)
Description: as §1

PRKAA2/AMPK221 = PRKAA2/AMPK221 (Homo sapiens, UniProt P54646)
Description: as §1

MAP3K14 = MAP3K14 (Homo sapiens, UniProt Q99558)
MAP3K14, sequence (Q99558 whole entry): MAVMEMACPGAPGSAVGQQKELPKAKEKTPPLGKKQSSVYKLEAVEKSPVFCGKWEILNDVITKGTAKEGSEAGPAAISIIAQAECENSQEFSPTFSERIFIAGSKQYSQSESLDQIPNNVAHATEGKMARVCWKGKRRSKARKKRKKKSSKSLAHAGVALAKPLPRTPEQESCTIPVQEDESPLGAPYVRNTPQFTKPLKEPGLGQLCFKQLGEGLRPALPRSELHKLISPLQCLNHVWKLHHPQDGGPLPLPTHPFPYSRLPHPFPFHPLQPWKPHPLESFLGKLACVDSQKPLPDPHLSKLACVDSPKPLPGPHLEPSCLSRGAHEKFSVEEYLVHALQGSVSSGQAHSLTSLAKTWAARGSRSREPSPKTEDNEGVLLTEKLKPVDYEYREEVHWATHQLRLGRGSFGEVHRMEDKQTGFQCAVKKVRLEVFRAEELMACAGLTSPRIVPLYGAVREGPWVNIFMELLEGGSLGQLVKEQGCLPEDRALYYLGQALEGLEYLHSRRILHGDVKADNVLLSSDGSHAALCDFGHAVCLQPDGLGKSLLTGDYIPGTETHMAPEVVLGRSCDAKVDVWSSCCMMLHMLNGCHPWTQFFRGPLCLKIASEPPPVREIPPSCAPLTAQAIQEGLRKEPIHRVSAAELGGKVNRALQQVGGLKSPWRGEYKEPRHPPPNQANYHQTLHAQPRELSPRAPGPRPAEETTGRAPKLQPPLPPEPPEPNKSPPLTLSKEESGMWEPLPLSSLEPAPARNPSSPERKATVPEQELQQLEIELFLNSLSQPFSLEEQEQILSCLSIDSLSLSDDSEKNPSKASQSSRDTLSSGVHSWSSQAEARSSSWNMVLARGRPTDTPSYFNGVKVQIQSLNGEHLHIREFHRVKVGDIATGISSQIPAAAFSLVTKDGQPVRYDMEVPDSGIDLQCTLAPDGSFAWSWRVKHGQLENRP
Description: as §1

TOPK = biological target: T5, TOPK (Homo sapiens, UniProt Q96KB5)
T5 construct: gene PBK
Description: as §1

LRRK2 = LRRK2 (Homo sapiens, UniProt Q5S007)
Description: as §1

MYLK/MLCK = MYLK/MLCK (Homo sapiens, UniProt Q15746)
Description: as §1

STK25/YSK1 = STK25/YSK1 (Homo sapiens, UniProt O00506)
Description: as §1

MAPKAPK3/MK3 = MAPKAPK3/MK3 (Homo sapiens, UniProt Q16644)
Description: as §1

MNK1 = biological target: T6, MNK1 (Homo sapiens, UniProt Q9BUB5)
T6 construct: gene MKNK1
Description: as §1

PDHK2 = biological target: T7, PDHK2 (Homo sapiens, UniProt Q15119)
T7 construct: gene PDK2
Description: as §1

HIPK4 = HIPK4 (Homo sapiens, UniProt Q8NE63)
Description: as §1

LIMK1 = LIMK1 (Homo sapiens, UniProt P53667)
Description: as §1

C=CC(=O)N1CCC[C@@H](n2nc(-c3ccc(Oc4ccccc4)cc3)c3c(N)ncnc32)C1 [Ibrutinib]
1 µM GBD00276 (ibrutinib), % inhibition (SIK1): 2.135% | 1 µM GBD00276 (ibrutinib), % inhibition (EPHA2): 9.007% | 1 µM GBD00276 (ibrutinib), % inhibition (NTRK1): 11.58% | 1 µM GBD00276 (ibrutinib), % inhibition (PRKCI/PKCI): 5.685% | 1 µM GBD00276 (ibrutinib), % inhibition (LIMK2): 11.59% | 1 µM GBD00276 (ibrutinib), % inhibition (FYNB): 30.61% | 1 µM GBD00276 (ibrutinib), % inhibition (DRAK2): 1.899% | 1 µM GBD00276 (ibrutinib), % inhibition (MAP3K10): -7.966% | 1 µM GBD00276 (ibrutinib), % inhibition (FLT1): 31.87% | 1 µM GBD00276 (ibrutinib), % inhibition (DYRK4): 6.524% | 1 µM GBD00276 (ibrutinib), % inhibition (NDR2): 11.14% | 1 µM GBD00276 (ibrutinib), % inhibition (ROCK1): 3.894% | 1 µM GBD00276 (ibrutinib), % inhibition (RIPK2): 98.43% | 1 µM GBD00276 (ibrutinib), % inhibition (AKT1): 16.85% | 1 µM GBD00276 (ibrutinib), % inhibition (MARK3): 4.514% | 1 µM GBD00276 (ibrutinib), % inhibition (TNK1): -7.554% | 1 µM GBD00276 (ibrutinib), % inhibition (PRKACB): -25.42% | 1 µM GBD00276 (ibrutinib), % inhibition (PDHK4): -54.44% | 1 µM GBD00276 (ibrutinib), % inhibition (ERN1): 1.571% | 1 µM GBD00276 (ibrutinib), % inhibition (MASTL): -9.51% | 1 µM GBD00276 (ibrutinib), % inhibition (MYO3B): -1.464% | 1 µM GBD00276 (ibrutinib), % inhibition (FLT3): 20.23% | 1 µM GBD00276 (ibrutinib), % inhibition (SRPK2): 8.374% | 1 µM GBD00276 (ibrutinib), % inhibition (MELK): -0.3303% | 1 µM GBD00276 (ibrutinib), % inhibition (TEK/TIE2): 2.512% | 1 µM GBD00276 (ibrutinib), % inhibition (EPHB1): -0.8801% | 1 µM GBD00276 (ibrutinib), % inhibition (PRKG1): -6.849% | 1 µM GBD00276 (ibrutinib), % inhibition (EIF2AK1/HRI): -3.537% | 1 µM GBD00276 (ibrutinib), % inhibition (PRKAA2/AMPK221): 4.802% | 1 µM GBD00276 (ibrutinib), % inhibition (MAP3K14): -11.44% | 1 µM GBD00276 (ibrutinib), % inhibition (TOPK): -5.913% | 1 µM GBD00276 (ibrutinib), % inhibition (LRRK2): -5.334% | 1 µM GBD00276 (ibrutinib), % inhibition (MYLK/MLCK): -5.288% | 1 µM GBD00276 (ibrutinib), % inhibition (STK25/YSK1): 10.23% | 1 µM GBD00276 (ibrutinib), % inhibition (MAPKAPK3/MK3): 9.483% | 1 µM GBD00276 (ibrutinib), % inhibition (MNK1): -4.408% | 1 µM GBD00276 (ibrutinib), % inhibition (PDHK2): 7.038% | 1 µM GBD00276 (ibrutinib), % inhibition (HIPK4): 3.287% | 1 µM GBD00276 (ibrutinib), % inhibition (LIMK1): 4.583%
